Reference: patent publication US20260345612A1, “THERAPEUTIC COMBINATIONS COMPRISING UBIQUITIN-SPECIFIC-PROCESSING PROTEASE 1 (USP1) INHIBITORS AND PARP1-SELECTIVE INHIBITORS” (KSQ Therapeutics, Inc., priority 2022, published 2026)

How the values were obtained:
[1] = test system: olaparib resistant patient-derived breast xenograft; test: Anti-tumor activity in olaparib resistant patient-derived breast xenograft model in nude mice; assay type: in vivo, Athymic nude mice
Description: Example 1: Anti-Tumor Activity of Formula I Co-Crystal in Combination with the Selective PARP1 Inhibitor, AZD5305, in a Patient-Derived Breast Xenograft Model in Nude Mice
The USP1 inhibitor employed in the examples is the co-crystal described above in paragraphs and [0143]-[0155]. This co-crystal can be prepared as described in Example 6 of Published PCT WO2022/094096. The Formula I co-crystal is a co-crystal of gentisic acid and 6-(4-cyclopropyl-6-methoxypyrimidin-5-yl)-1-(4-(1-isopropyl-4-(trifluoromethyl)-1H-imidazol-2-yl)benzyl)-1H-pyrazolo[3,4-d]pyrimidine.
Anti-tumor activity of the USP1 inhibitor of Formula I co-crystal in combination with AZD5305 was evaluated in mice using an olaparib resistant patient-derived breast xenograft model in nude mice, as shown in FIGS. 1A through 1C. 6-9 week old female Athymic nude mice from Envigo were anesthetized, and a 20 mm^3 tumor fragment was placed subcutaneously via incision in the flank. When tumors established to a tumor volume ranging from 63 to 196 mm^3, mice were randomized into groups of 10 and were assigned into the following groups: control, Formula I (100 mg/kg), AZD5305 (10 mg/kg) or Formula I (100 mg/kg) and AZD5305 (10 mg/kg) in combination. […] Body weight and tumor volume were measured twice per week. Tumor volume was calculated as mean and standard error of the mean for each treatment group.

[2] = test system: breast xenograft tumors with resistance to AZD5305 monotherapy; test: Combination activity in mice with tumors resistant to PARP inhibitors (AZD5305 monotherapy); assay type: in vivo, Athymic nude mice; conditions: from day 49, 5 mice resistant to AZD5305 monotherapy; Formula I (100 mg/kg) and AZD5305 (10 mg/kg); FIG. 1B
Method: Anti-tumor activity of the USP1 inhibitor of Formula I co-crystal in combination with AZD5305 was evaluated in mice using an olaparib resistant patient-derived breast xenograft model in nude mice, as shown in FIGS. 1A through 1C. 6-9 week old female Athymic nude mice from Envigo were anesthetized, and a 20 mm^3 tumor fragment was placed subcutaneously via incision in the flank. When tumors established to a tumor volume ranging from 63 to 196 mm^3, mice were randomized into groups of 10 and were assigned into the following groups: control, Formula I (100 mg/kg), AZD5305 (10 mg/kg) or Formula I (100 mg/kg) and AZD5305 (10 mg/kg) in combination. Compound was administered via oral gavage once daily for at least 42 days dependent upon the treatment group. Body weight and tumor volume were measured twice per week. Tumor volume was calculated as mean and standard error of the mean for each treatment group.

Structure (SMILES) | resistance to AZD5305 monotherapy ([1]; AZD5305 (10 mg/kg) monotherapy, oral once daily, day 49, 5 mice) | anti-tumor activity compared to equivalent doses of the single agents ([1]; Formula I (100 mg/kg) and AZD5305 (10 mg/kg), oral gavage once daily, at least 42 days, FIG. 1A) | tumor volume after addition of Formula I, compared to remaining animals on AZD5305 monotherapy [2]
CCc1cc2ncc(CN3CCN(c4ccc(C(=O)NC)nc4)CC3)cc2[nH]c1=O [AZD5305, 5-[4-[(7-ethyl-6-oxo-5H-1,5-naphthyridin-3-yl)methyl]piperazin-1-yl]-N-methylpyridine-2-carboxamide, reference compound] | demonstrated resistance |  | 
COc1ncnc(C2CC2)c1-c1ncc2cnn(Cc3ccc(-c4nc(C(F)(F)F)cn4C(C)C)cc3)c2n1 [Formula I, 6-(4-cyclopropyl-6-methoxypyrimidin-5-yl)-1-(4-(1-isopropyl-4-(trifluoromethyl)-1H-imidazol-2-yl)benzyl)-1H-pyrazolo[3,4-d]pyrimidine] |  | enhances antitumor activity of AZD5305 | decrease in tumor volume
